In patent US10383844B2, “Methods for treating pulmonary fibrosis using chromenone derivatives” (College of Medicine Pochon Cha University Industry—Academic …, priority 2017, dated 2019):

How the values were obtained:
[1] = system: radiation-induced pulmonary fibrosis; experiment: Small animal model of radiation-induced pulmonary fibrosis (local lung irradiation); assay type: in vivo; details: C57BL/6 male mouse, left lung 75 Gy, 13.6 mg/kg intraperitoneally three times a week, FIG. 4(B)
Experimental: To identify an anti-pulmonary fibrosis effect according to a production of HSP27 dimers in a small animal model on lung side effects with clinically analogous irradiation, the small animal model was exposed to a radiation dose in a range of high dose clinical radiotherapy to induce a pulmonary fibrosis process.
As shown in FIG. 4(A), a 10 week-old C57BL/6 male mouse was anesthetized with an anesthetic mixture of 30 mg/kg Zoletil and 10 mg/kg Rompun, after which a left lung of the mouse was exposed to a high dose radiation of 75 Gy in a 3 mm range by using X-Rad 320 (Precision, North Branford, Conn., USA). Then, Compound 1 of the present invention was intraperitoneally administered to the mouse at a 13.6 mg/kg concentration three times a week. During its sacrifice, the mouse was anesthetized, after which 10% formalin was injected into the anesthetized mouse through an airway thereof to fix its lung, such that a tissue sample was prepared by using a paraffin embedding.
An amount of collagen was histologically identified through Masson's trichrome dyeing to compare degrees of pulmonary fibrosis with each other.

L132 cells [2] = experiment: Degree of radiation-induced EMT in L132 cells (western blots); assay type: cell-based; details: L132, 0.1 μM, 1 hour later radiation 5 Gy, 48 hours, FIG. 3(B)
Experimental: (§1) For the experiment, L132 cells were cultured at 37° C. in a 5% CO2 incubator by using an RPMI 1640 (RPMI, GIBCO-Invitrogen, Paisley, Scotland, UK) medium containing 10% FBS and 1× Antibiotic-Antimycotic (GIBCO-Invitrogen, Paisley, Scotland, UK).
To carry out the western blots, the treated cells were respectively washed twice with 1×PBS (0.14 M NaCl, 2.68 mM KCl, 10 mM Na2HPO4, 1.83 mM KH2PO4), after which the resulting cells were dissolved in a protein lysis buffer (100 mM Tris-HCl (pH 7.5), 50 mM NaCl, 5 mM EDTA (pH 8.0), 0.5% NP-40, 0.5% Sodium deoxycholate, 50 mM β-glycerophosphate, 0.1 mM Na3VO4, 50 mM NaF). A cell suspension was centrifuged at 13000 rpm for 30 minutes, after which only a supernatant thereof was taken out, such that 1% BSA solution was injected by 8, 6, 4, 2 and 0 μL into Protein Dye 1 mL as a standard by using a Bradford assay and 2 μL of the supernatant was added thereinto. The resulting solution was divided by 200 μL into each of a 96-well plate, after which the resulting plate was put into an ELISA reader to measure an optical observance thereof at an wavelength of 595 nm, such that a 6× sample buffer (0.35 M Tris (pH 6.8), 3% glycerol, 1% Sodium Dodecyl Sulfate, 6 mM Dithiothreitol) was injected to make a sample containing the same amount of protein. Then, the resulting sample was soaked in 100° C. water and boiled for 5 minutes and the same amount of protein was analyzed by using SDS-PAGE. A primary antibody used for the western blots was anti-HSP27 and β-actin (Santacruz, sc-13132 and sc-47778), and also anti-E-cadherin (BD, #610181), anti-Vimentin (BD, #550513), anti-Fibronectin (BD, #610077), anti-snail (Cell signaling, #3895S), anti-alpha-smooth muscle actin (Sigma, A5228), and anti-Zo-1 (Life technologies, #402200) were used. A secondary antibody used was Goat anti rabbit and Goat anti mouse (Santacruz, sc-2004 and sc-2005). […]

L132 cells [3] = experiment: Degree of EMT induced by TGF-beta in L132 cells (western blots); assay type: cell-based; details: L132, 0.1 μM, 1 hour later TGF-beta 5 ng/mL for 48 hours, FIG. 3(A)
Experimental: as §1
To carry out the western blots, the treated cells were respectively washed twice with 1×PBS (0.14 M NaCl, 2.68 mM KCl, 10 mM Na2HPO4, 1.83 mM KH2PO4), after which the resulting cells were dissolved in a protein lysis buffer (100 mM Tris-HCl (pH 7.5), 50 mM NaCl, 5 mM EDTA (pH 8.0), 0.5% NP-40, 0.5% Sodium deoxycholate, 50 mM β-glycerophosphate, 0.1 mM Na3VO4, 50 mM NaF). A cell suspension was centrifuged at 13000 rpm for 30 minutes, after which only a supernatant thereof was taken out, such that 1% BSA solution was injected by 8, 6, 4, 2 and 0 μL into Protein Dye 1 mL as a standard by using a Bradford assay and 2 μL of the supernatant was added thereinto. The resulting solution was divided by 200 μL into each of a 96-well plate, after which the resulting plate was put into an ELISA reader to measure an optical observance thereof at an wavelength of 595 nm, such that a 6× sample buffer (0.35 M Tris (pH 6.8), 3% glycerol, 1% Sodium Dodecyl Sulfate, 6 mM Dithiothreitol) was injected to make a sample containing the same amount of protein. Then, the resulting sample was soaked in 100° C. water and boiled for 5 minutes and the same amount of protein was analyzed by using SDS-PAGE. A primary antibody used for the western blots was anti-HSP27 and β-actin (Santacruz, sc-13132 and sc-47778), and also anti-E-cadherin (BD, #610181), anti-Vimentin (BD, #550513), anti-Fibronectin (BD, #610077), anti-snail (Cell signaling, #3895S), anti-alpha-smooth muscle actin (Sigma, A5228), and anti-Zo-1 (Life technologies, #402200) were used. A secondary antibody used was Goat anti rabbit and Goat anti mouse (Santacruz, sc-2004 and sc-2005).
To identify a degree of EMT according to a production of altered HSP27 dimers in cells, L132, a normal lung cell, was treated with Compound 1 of the present invention at a 0.1 μM concentration, and in 1 hour later the cell was treated with TGF-beta at a 5 ng/mL concentration for 48 hours. Then, a cell culture and western blots were performed in the same method as the above Experimental Example 1.

Structure (SMILES)	melting point [°C]	immune response lesion in locally irradiated lung region (naked eye) [1]	expression of E-cadherin (L132 cells [2])	expression of Twist (marker of mesenchymal cells) (L132 cells [2])	expression of Zo-1 (L132 cells [2])	altered HSP dimers (L132 cells [3])	expression of E-cadherin (marker of epithelial cells) (L132 cells [3])	expression of Fibronectin (marker of mesenchymal cells) (L132 cells [3])	expression of Snail (marker of mesenchymal cells) (L132 cells [3])
Cc1cc(=O)c2c(OCC3CS3)cc(OCC3CS3)cc2o1 (stereo not drawn)	95 to 96	–	–	–	–	–	–	–	–
Cc1cc(=O)c2c(O)cc(OCC3CS3)cc2o1 (stereo not drawn) [Compound 1, 5-hydroxy-2-methyl-7-(thiirane-2-ylmethoxy)-4H-chromene-4-one]	–	the lesion was recovered	mitigated a decrease	inhibited an increase	mitigated a decrease	increasing altered HSP dimers in a dose-dependent manner	mitigating a decrease	inhibiting an increase	inhibiting an increase
